Assay [1] has as its target T1, HIF-2α (Homo sapiens, UniProt Q99814). Description: HIF-2α Luciferase Reporter Assay (serum free) in HIF-Luc-786-0 cells. Type of assay: cell-based. Particulars: Opti-MEM, 786-0 reporter cells, 20 hours incubation. As to the method: (§1) Generation of HIF-2α Luciferase 786-0 Cell Line:
(§2) Stable cell lines were generated by transducing 786-0 cells (ATCC, CRL-1932) with Cignal Lenti HIF Luc Reporter lentivirus (CLS-007L, Qiagen) according to the manufacturer's guidelines. In brief, 0.3×10^6 786-0 cells were transduced with lentivirus at a multiplicity of infection (MOI) of 25 for 24 hours. After transduction, cells were replenished with fresh RPMI 1640 Medium (Cat. No. 11875085, Thermo Fisher) supplemented with 10% FBS (Cat. No. A3160502, Gibco), 2 mM GlutaMAX™ (Cat. No. 35050-061, Invitrogen) and 100 units of penicillin and 100 μg of streptomycin/mL (Cat. No 15070063, Thermo Fisher) for another 24 hours. Antibiotic selection was performed in cell media containing 4 μg/mL of puromycin. After 7 days of antibiotic selection, stable pools of surviving cells were expanded and used in a luciferase reporter assay.
HIF-2α Luciferase Reporter Assay (Serum Free):
On day one, 20 uL of HIF-Luc-786-0 cells in Opti-MEM™ (Cat. No. 31985088, Thermo Fisher) were seeded into each well of a 384 well white opaque plate (Corning 3570) and incubated at 37° C. and 5% CO2. Twenty microliters of 2× test compounds in Opti-MEM™ were added to cells after 4 hours of incubation. Final assay conditions comprised 20,000 cells per well in 1% DMSO with test compound concentrations ranging from 50 uM to 0 uM. After 20 hours incubation at 37° C. and 5% CO2, luciferase activity was determined using ONE-Glo™ Luciferase Assay Reagent (E6110, Promega) following the manufacture's recommended procedure. Briefly, 40 uL of ONE-Glo™ luciferase reagents were added to each well and luciferase signals were measured using an Envision 2102 Multilabel Reader. Percentage maximum activity in each test well was calculated based on DMSO (maximum activity) and no cell control wells (baseline activity). The IC50 values of the test compounds were determined from compound dose response curves fitted using a standard four parameter fit equation.
On the technique in general: Reporter assays use an easily measured gene product as a stand-in for the process of interest.

Assay [2] has as its target T1, HIF-2α. Description: HIF-2α Luciferase Reporter Assay (serum), HRE-luciferase 786-0 cells in 100% human serum. Type of assay: cell-based. Particulars: for IC50: 100% human serum, 786-0 reporter cells, overnight incubation, read-out: Serum Potency; for Serum Shift (approximate): ratio of IC50 in 100% serum to IC50 in serum free conditions. On the procedure:
as §1, §2
HIF-2α Luciferase Reporter Assay (Serum):
An HRE-luciferase stable reporter 786-0 cell line was maintained in active culture using RPMI 1640 (GIBCO) media supplemented with 1% penicillin-streptomycin, 1% GlutaMAX™, 10% FBS-One Shot (GIBCO) and 4 ug/ml of puromycin (Invitrogen). On the day of the assay, cells were harvested using StemPro™ Accutase™ cell dissociation reagent (GIBCO) and resuspended at 1.5 million cells per milliliter in Opti-MEM™ (GIBCO). 20 ul/well of the resuspended cells were dispensed into a 384 white tissue culture-treated microplate (Corning) and allowed to incubate at 37° C., 5% CO2 for 3 hours. Compounds were prepared by dispensing 0.8 ul of compound in 100% DMSO into a Greiner plate containing 40 ul/well of 100% human serum (Bioreclamation IVT). After 3 hours, media was removed via centrifugation at 500 RPM for 30 seconds and 30 ul/well of compound diluted in human serum was added. The plate was incubated overnight at 37° C., 5% CO2. The following day, ONE-Glo™ was prepared per vendors instructions. The cell plate was removed from the incubator and the human serum was removed from the plate using centrifugation at 500 RPM for 30 seconds. Following the removal of human serum, 40 ul/well of room temperature Opti-MEM™ was added to the plate and allowed to equilibrate to room temperature for 2 hours. 40 ul/well of ONE-Glo™ reagent was added and allowed to incubate for 10 minutes before reading the luminescence signal on the Envision (PerkinElmer). Data was analyzed using 4-parameter logistic equation to generate IC50.

The structures appear in SMILES notation.

T1 sequence (Q99814 whole entry): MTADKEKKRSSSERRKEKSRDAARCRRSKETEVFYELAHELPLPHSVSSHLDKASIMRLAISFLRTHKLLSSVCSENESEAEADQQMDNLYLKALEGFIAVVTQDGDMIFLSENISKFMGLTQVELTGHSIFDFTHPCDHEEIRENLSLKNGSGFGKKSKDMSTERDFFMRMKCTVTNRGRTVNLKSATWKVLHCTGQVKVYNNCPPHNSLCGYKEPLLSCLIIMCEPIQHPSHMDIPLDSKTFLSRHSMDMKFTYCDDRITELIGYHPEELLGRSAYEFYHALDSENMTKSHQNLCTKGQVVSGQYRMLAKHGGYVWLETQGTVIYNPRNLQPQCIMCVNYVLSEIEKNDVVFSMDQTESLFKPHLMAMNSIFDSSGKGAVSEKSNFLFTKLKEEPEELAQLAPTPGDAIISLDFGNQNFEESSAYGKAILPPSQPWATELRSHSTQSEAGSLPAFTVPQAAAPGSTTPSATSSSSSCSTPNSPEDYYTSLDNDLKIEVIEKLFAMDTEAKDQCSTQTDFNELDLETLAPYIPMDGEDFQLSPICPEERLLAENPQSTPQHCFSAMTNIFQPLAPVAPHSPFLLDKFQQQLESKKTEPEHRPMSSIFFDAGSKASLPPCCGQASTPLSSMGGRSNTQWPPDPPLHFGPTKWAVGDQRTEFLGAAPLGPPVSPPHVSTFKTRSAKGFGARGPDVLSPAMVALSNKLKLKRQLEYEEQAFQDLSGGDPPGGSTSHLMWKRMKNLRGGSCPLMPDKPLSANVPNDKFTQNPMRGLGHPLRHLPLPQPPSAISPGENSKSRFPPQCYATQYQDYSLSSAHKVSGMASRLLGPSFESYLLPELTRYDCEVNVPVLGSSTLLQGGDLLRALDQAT

For `C[C@@H](C#N)CCn1nc(C(F)(F)F)c2c1CCC(F)(F)[C@H]2O` [Example 99, (2R)-4-[(4S)-5,5-difluoro-4-hydroxy-3-(trifluoromethyl)-6,7-dihydro-4H-indazol-1-yl]-2-methylbutanenitrile], the IC50 against HIF-2α [1] was < 100 nM. For the same compound, on HIF-2α [2], the IC50 was 100 to 1000 nM and the “Serum Shift (approximate)” value is listed as 3.
At HIF-2α [1], `O[C@H]1c2c(C(F)(F)F)nn([C@@H]3C[C@@H]4[C@H](C3)C4(F)F)c2CC1(F)F` (single isomer, unassigned) [125/126 DIAST-2] had an IC50 of 100 to 1000 nM. In addition, on HIF-2α [2], the IC50 is > 1000 nM and the “Serum Shift (approximate)” value stood at 5.
Regarding `O[C@H]1c2c(C(F)(F)F)nn(CCCOC(F)(F)F)c2C[C@@H]1F` [Example 63, (4S,5S)-5-fluoro-1-[3-(trifluoromethoxy)propyl]-3-(trifluoromethyl)-5,6-dihydro-4H-cyclopenta[c]pyrazol-4-ol], the IC50 against HIF-2α [1] lay in the range of 100 to 1000 nM. On HIF-2α [2], the IC50 is > 1000 nM and the “Serum Shift (approximate)” value amounted to 4.
In the same order, the values of `O[C@H]1c2c(C(F)(F)F)nn(C3CC4(C3)CC(F)(F)C4)c2[C@H](F)[C@H]1F` (single isomer, unassigned) [Example 135] are < 100 nM, > 1000 nM and 12.
In the same order, the values of `O[C@@H]1c2c(C(F)(F)F)nn([C@H]3CC[C@H](F)[C@H](F)C3)c2[C@H](F)C1(F)F` (single isomer, unassigned) [Example 154] are < 100 nM, 100 to 1000 nM and 9.
For `CO[C@H](CCn1nc(C(F)(F)F)c2c1[C@@H](F)[C@@H](F)[C@H]2O)C(F)(F)F` [Example 131, (4S,5S,6R)-5,6-difluoro-1-[(3R)-4,4,4-trifluoro-3-methoxybutyl]-3-(trifluoromethyl)-5,6-dihydro-4H-cyclopenta[c]pyrazol-4-ol], in that order: < 100 nM, < 100 nM and 2.
The compound `O[C@H]1c2c(C(F)(F)F)nn([C@@H]3CCC[C@H](C(F)(F)F)C3)c2CC1(F)F` [Example 82, (4S)-5,5-difluoro-3-(trifluoromethyl)-1-[(1R,3S)-3-(trifluoromethyl)cyclohexyl]-1H,4H,5H,6H-cyclopenta[c]pyrazol-4-ol] displayed an IC50 against HIF-2α [1] of 100 to 1000 nM. Moreover, on HIF-2α [2], the IC50 is > 1000 nM and the “Serum Shift (approximate)” value was 23.
For the compound `F[C@H]1c2c(C(F)(F)F)nn(CCCC(F)(F)F)c2CCC1(F)F` [Example 48, (4S)-4,5,5-trifluoro-1-(4,4,4-trifluorobutyl)-3-(trifluoromethyl)-6,7-dihydro-4H-indazole], the IC50 against HIF-2α [1] was > 1000 nM.
The same measure, in the same setting: in the case of `O[C@H]1c2c(C(F)(F)F)nn(-c3ccc(C(F)(F)F)nc3)c2CC1(F)F` [Example 68, (4S)-5,5-difluoro-3-(trifluoromethyl)-1-[6-(trifluoromethyl)pyridin-3-yl]-4,6-dihydrocyclopenta[c]pyrazol-4-ol] it was < 100 nM; in that of `O[C@H]1c2c(C(F)(F)F)nn(C3CCCCC3)c2CCC1(F)F` [Example 35, (4S)-1-cyclohexyl-5,5-difluoro-3-(trifluoromethyl)-6,7-dihydro-4H-indazol-4-ol], > 1000 nM; in that of `O[C@H]1c2c(C(F)(F)F)nn([C@H]3C[C@@H](COC(F)F)C3)c2CCC1(F)F` [Example 105, (4S)-1-[3-(difluoromethoxymethyl)cyclobutyl]-5,5-difluoro-3-(trifluoromethyl)-6,7-dihydro-4H-indazol-4-ol], > 1000 nM.
The same measure, in the same setting: in the case of `O[C@H]1c2c(C(F)(F)F)nn(C[C@@H](F)C3CC3)c2CCC1(F)F` (single isomer, unassigned) [26/27 DIAST-1] it was > 1000 nM; in that of `CO[C@H](CCn1nc(S(C)(=O)=O)c2c1CC(F)(F)[C@H]2O)C(F)(F)F` (racemic) [Example 107, (4S)-5,5-difluoro-3-methylsulfonyl-1-[(3R)-4,4,4-trifluoro-3-methoxybutyl]-4,6-dihydrocyclopenta[c]pyrazol-4-ol and (4S)-5,5-difluoro-3-methylsulfonyl-1-[(3S)-4,4,4-trifluoro-3-methoxybutyl]-4,6-dihydrocyclopenta[c]pyrazol-4-ol], < 100 nM; in that of `O[C@H]1c2c(C(F)(F)F)nn([C@H]3CC[C@H](F)C[C@@H]3F)c2CC1(F)F` (single isomer, unassigned) [97/98 DIAST-2], < 100 nM.
The same measure, in the same setting: in the case of `O[C@H]1c2c(C(F)(F)F)nn(Cc3cc(C(F)(F)F)no3)c2CCC1(F)F` [Example 4, (4S)-5,5-difluoro-3-(trifluoromethyl)-1-[[3-(trifluoromethyl)-1,2-oxazol-5-yl]methyl]-6,7-dihydro-4H-indazol-4-ol] it was > 1000 nM; in that of `CCC(F)(F)Cn1nc(C(F)(F)F)c2c1CCC(F)(F)[C@H]2O` [Example 29, (4S)-1-(2,2-difluorobutyl)-5,5-difluoro-3-(trifluoromethyl)-6,7-dihydro-4H-indazol-4-ol], > 1000 nM; in that of `O[C@H]1c2c(C(F)(F)F)nn([C@H]3CC[C@H](F)[C@H](F)C3)c2[C@H](F)C1(F)F` (single isomer, unassigned) [Example 155], > 1000 nM.
As for `C[C@]1(OC(F)F)C[C@@H](Cn2nc(C(F)(F)F)c3c2CCC(F)(F)[C@H]3O)C1` [Example 19, (4S)-1-[[3-(difluoromethoxy)-3-methylcyclobutyl]methyl]-5,5-difluoro-3-(trifluoromethyl)-6,7-dihydro-4H-indazol-4-ol], the IC50 against HIF-2α [1] is > 1000 nM.
Same read-out and setting: in the case of `O[C@H]1c2c(C(F)(F)F)nn([C@@H]3CCO[C@@H](C(F)(F)F)C3)c2CC1(F)F` (single isomer, unassigned) [92/93 DIAST-1] it was < 100 nM.
Same read-out and setting: in the case of `O[C@H]1c2c(C(F)(F)F)nn([C@@H]3CCO[C@H](C(F)(F)F)C3)c2[C@@H](F)[C@H]1F` (single isomer, unassigned) [150/151 DIAST-2] it was > 1000 nM; in that of `O[C@H]1c2c(C(F)(F)F)nn(CCC3CCCO3)c2CCC1(F)F` (stereo partly drawn) [Example 34, (4S)-5,5-difluoro-1-[2-(oxolan-2-yl)ethyl]-3-(trifluoromethyl)-6,7-dihydro-4H-indazol-4-ol], > 1000 nM; in that of `O[C@H]1c2c(C(F)(F)F)nn(CC(F)(F)C3CC3)c2CCC1(F)F` [Example 28, (4S)-1-(2-cyclopropyl-2,2-difluoroethyl)-5,5-difluoro-3-(trifluoromethyl)-4,5,6,7-tetrahydro-1H-indazol-4-ol], > 1000 nM.
Same read-out and setting: in the case of `COCC(C)CCn1nc(C(F)(F)F)c2c1CCC(F)(F)[C@H]2O` (stereo partly drawn) [Example 6, (4S)-5,5-difluoro-1-(4-methoxy-3-methylbutyl)-3-(trifluoromethyl)-6,7-dihydro-4H-indazol-4-ol] it was > 1000 nM; in that of `CO[C@H]1CCCC[C@H]1n1nc(C(F)(F)F)c2c1CC(F)(F)[C@H]2O` (racemic) [Example 69, (4S)-5,5-difluoro-1-[(1R,2S)-2-methoxycyclohexyl]-3-(trifluoromethyl)-4,6-dihydrocyclopenta[c]pyrazol-4-ol and (4S)-5,5-difluoro-1-[(1S,2R)-2-methoxycyclohexyl]-3-(trifluoromethyl)-4,6-dihydrocyclopenta[c]pyrazol-4-ol], > 1000 nM.
